Assay results: publication PMC6814295 (Insect biochemistry and molecular biology, 2018)

What was measured:
[1] = molecular target: AaPK1 (Aedes aegypti pyruvate kinase 1) (Aedes aegypti, UniProt Q16F38); assay: LDH-coupled NADH oxidation at […] nm, PEP varied; assay type: biochemical; conditions: 1 mM effector, 2 mM ADP, 20 mM MgCl2, 50 mM KCl, pH 7.5, 25 °C
[2] = molecular target: Aedes aegypti pyruvate kinase 1 (Aedes aegypti); assay: crystal structure

Molecule	LDH-coupled NADH oxidation at 340 nm, PEP varied ([1]; allosteric activator)	other results
O=P(O)(O)OCC1(O)O[C@H](CO)[C@@H](O)[C@@H]1O (stereo partly shown) [F1P, fructose-1-phosphate]	our results indicate that F1P is an allosteric activator	–
O=C(CO)[C@H](O)[C@H](O)COP(=O)(O)O [R5P, ribulose-5-phosphate]	–	LDH-coupled NADH oxidation at 340 nm, PEP varied ([1]; allosteric inhibitor): while R5P is an allosteric inhibitor of AaPK1
C[C@H](N)C(=O)O [alanine]	AaPK1 is regulated by alanine, glutamine, proline, and serine in a classic allosteric fashion	–
NC(=O)CC[C@H](N)C(=O)O [glutamine]	AaPK1 is regulated by alanine, glutamine, proline, and serine in a classic allosteric fashion	–
O=C(O)[C@@H]1CCCN1 [proline]	AaPK1 is regulated by alanine, glutamine, proline, and serine in a classic allosteric fashion	–
N[C@@H](CO)C(=O)O [serine]	AaPK1 is regulated by alanine, glutamine, proline, and serine in a classic allosteric fashion	–
Aedes aegypti pyruvate kinase 1 (enzyme)	–	stoichiometry N [2]: 4
